Assay results reported in ChEMBL document CHEMBL1909046, “DrugMatrix in vitro pharmacology data”.
pIC50: −log10 of the molar value.

What was measured:
[1] = DRUGMATRIX: Nicotinic Acetylcholine radioligand binding (ligand: [125I] Epibatidine); type: cell membranes, Membrane; details: imr-32; Not Active = under 50% inhibition at 10 µM
[2] = target: T1, Alpha-1A adrenergic receptor (Rattus norvegicus, UniProt P43140); experiment: DRUGMATRIX: Alpha-1A adrenergic receptor radioligand binding (ligand: prazosin); type: cell membranes, Wistar, Submaxillary gland, Membrane; details: Not Active = under 50% inhibition at 10 µM
T1 sequence (P43140 whole entry): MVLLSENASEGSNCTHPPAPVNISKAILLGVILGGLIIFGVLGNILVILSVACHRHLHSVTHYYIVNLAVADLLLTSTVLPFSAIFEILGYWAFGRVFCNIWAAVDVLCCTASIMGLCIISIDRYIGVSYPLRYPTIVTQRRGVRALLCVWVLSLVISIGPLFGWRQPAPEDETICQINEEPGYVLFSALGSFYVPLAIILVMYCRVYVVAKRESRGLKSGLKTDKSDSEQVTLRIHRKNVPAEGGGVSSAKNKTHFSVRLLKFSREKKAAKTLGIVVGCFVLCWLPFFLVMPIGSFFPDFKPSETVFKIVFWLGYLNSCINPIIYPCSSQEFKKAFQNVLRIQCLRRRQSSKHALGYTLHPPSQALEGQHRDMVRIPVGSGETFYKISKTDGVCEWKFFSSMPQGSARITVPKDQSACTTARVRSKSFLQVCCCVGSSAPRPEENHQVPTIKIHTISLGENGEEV

[3] = target: Histamine H2 receptor (Homo sapiens, UniProt P25021); type: cell membranes, CHO-K1, Membrane; details: cho-k1; also: in other assays of this panel Not Active means under 50% inhibition at 10 µM
[4] = target: D(1A) dopamine receptor (Homo sapiens, UniProt P21728); experiment: DRUGMATRIX: Dopamine D1 radioligand binding (ligand: [3H] SCH-23390); type: cell membranes, CHO, Membrane; details: cho; Not Active = under 50% inhibition at 10 µM
[5] = target: Epidermal growth factor receptor (Homo sapiens, UniProt P00533); experiment: DRUGMATRIX: Protein Tyrosine Kinase, EGF Receptor enzyme inhibition (substrate: Poly(Glu:Tyr)); type: cell-based, Insect cells; details: insect cells; Not Active = under 50% inhibition at 10 µM
[6] = DRUGMATRIX: GABAA, Flunitrazepam, Central radioligand binding (ligand: [3H] Flunitrazepam); type: cell membranes, Rattus norvegicus, Wistar, Brain, Membrane; details: Not Active = under 50% inhibition at 10 µM
[7] = target: Cytochrome P450 2D6 (Homo sapiens, UniProt P10635); also: in other assays of this panel Not Active means under 50% inhibition at 10 µM
[8] = target: Beta-3 adrenergic receptor (Homo sapiens, UniProt P13945); experiment: DRUGMATRIX: Adrenergic beta3 radioligand binding (ligand: [125I] Cyanopindolol); type: cell membranes, HEK293, Membrane; details: hek293; Not Active = under 50% inhibition at 10 µM
[9] = target: T2, Androgen receptor (Rattus norvegicus, UniProt P15207); also: in other assays of this panel Not Active means under 50% inhibition at 10 µM
T2 sequence (P15207 whole entry): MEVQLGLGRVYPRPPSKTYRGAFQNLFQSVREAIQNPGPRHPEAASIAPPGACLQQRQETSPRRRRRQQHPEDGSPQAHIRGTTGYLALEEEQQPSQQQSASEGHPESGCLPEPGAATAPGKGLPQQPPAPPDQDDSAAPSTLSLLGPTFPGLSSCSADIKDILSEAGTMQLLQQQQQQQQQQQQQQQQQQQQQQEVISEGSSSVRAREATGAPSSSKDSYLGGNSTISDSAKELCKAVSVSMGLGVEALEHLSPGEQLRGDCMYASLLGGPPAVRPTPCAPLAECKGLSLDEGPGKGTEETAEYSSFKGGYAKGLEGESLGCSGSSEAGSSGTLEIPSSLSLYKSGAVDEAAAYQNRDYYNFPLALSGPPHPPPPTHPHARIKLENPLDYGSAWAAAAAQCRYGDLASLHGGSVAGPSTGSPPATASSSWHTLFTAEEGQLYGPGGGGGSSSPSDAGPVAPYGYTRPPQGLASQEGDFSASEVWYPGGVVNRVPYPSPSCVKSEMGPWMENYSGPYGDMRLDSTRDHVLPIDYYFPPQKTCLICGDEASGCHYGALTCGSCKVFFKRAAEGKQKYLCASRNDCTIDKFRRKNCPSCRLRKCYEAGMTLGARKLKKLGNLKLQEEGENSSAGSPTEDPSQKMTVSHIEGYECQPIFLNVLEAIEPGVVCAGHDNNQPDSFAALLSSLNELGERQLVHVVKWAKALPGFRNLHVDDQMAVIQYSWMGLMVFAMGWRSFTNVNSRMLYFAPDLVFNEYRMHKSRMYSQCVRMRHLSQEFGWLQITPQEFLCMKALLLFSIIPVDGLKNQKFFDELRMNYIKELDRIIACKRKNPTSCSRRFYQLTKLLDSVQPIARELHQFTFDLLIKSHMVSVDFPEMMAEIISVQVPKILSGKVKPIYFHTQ

[10] = target: Cytochrome P450 2C19 (Homo sapiens, UniProt P33261); also: in other assays of this panel Not Active means under 50% inhibition at 10 µM
Cytochrome P450 2C19, sequence (P33261 whole entry): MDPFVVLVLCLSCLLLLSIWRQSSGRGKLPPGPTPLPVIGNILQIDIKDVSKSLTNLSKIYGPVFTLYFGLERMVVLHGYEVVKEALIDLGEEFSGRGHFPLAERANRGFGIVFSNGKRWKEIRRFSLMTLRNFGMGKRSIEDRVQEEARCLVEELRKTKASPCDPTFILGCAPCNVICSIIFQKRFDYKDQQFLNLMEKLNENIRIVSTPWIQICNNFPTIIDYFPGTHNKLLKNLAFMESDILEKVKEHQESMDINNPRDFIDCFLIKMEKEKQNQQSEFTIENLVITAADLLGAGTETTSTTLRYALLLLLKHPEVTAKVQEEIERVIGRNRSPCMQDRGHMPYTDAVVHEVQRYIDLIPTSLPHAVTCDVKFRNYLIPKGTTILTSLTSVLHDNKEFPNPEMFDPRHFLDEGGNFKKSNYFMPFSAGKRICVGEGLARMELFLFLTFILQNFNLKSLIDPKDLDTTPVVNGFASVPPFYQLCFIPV

Beta-3 adrenergic receptor, sequence (P13945 whole entry): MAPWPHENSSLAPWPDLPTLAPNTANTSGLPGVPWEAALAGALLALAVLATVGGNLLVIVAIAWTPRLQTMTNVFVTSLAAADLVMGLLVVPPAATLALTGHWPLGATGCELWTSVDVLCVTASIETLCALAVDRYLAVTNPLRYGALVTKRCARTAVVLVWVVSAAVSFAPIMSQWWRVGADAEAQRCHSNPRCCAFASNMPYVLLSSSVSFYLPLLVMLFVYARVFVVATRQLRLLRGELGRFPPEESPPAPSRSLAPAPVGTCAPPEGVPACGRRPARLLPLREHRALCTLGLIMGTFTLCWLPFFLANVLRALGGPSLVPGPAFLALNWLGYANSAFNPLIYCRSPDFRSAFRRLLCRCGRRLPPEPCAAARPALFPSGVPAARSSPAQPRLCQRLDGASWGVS
Epidermal growth factor receptor, sequence (P00533 whole entry): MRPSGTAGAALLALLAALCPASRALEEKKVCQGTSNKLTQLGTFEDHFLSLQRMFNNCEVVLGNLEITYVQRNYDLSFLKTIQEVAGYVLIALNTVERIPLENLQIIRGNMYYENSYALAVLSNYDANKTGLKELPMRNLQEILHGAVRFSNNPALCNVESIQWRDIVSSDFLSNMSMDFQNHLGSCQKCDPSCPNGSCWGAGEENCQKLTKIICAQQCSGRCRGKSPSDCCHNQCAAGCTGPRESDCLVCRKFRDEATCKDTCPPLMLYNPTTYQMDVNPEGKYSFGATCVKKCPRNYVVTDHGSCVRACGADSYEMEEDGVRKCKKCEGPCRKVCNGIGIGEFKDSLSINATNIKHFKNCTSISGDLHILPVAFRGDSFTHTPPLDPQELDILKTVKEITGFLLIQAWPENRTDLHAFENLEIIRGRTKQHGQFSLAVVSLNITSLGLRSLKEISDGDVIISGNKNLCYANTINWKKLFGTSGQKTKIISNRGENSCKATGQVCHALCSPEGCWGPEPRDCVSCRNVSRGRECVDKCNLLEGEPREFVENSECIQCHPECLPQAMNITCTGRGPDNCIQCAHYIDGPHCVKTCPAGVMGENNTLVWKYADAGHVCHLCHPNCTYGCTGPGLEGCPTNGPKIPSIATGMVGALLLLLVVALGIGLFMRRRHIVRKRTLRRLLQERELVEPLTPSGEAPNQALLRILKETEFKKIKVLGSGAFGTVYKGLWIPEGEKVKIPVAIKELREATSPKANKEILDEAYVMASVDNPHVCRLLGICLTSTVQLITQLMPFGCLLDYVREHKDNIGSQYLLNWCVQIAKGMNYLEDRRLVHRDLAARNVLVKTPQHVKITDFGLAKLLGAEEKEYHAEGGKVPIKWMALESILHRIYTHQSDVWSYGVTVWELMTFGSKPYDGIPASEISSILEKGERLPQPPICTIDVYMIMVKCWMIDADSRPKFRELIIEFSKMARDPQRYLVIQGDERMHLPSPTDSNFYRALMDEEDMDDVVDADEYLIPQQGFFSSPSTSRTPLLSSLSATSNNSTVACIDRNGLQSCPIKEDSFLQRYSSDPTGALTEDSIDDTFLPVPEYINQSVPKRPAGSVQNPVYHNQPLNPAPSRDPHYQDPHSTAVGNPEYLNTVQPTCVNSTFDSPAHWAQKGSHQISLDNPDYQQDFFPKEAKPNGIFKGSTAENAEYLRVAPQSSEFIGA
Histamine H2 receptor, sequence (P25021 whole entry): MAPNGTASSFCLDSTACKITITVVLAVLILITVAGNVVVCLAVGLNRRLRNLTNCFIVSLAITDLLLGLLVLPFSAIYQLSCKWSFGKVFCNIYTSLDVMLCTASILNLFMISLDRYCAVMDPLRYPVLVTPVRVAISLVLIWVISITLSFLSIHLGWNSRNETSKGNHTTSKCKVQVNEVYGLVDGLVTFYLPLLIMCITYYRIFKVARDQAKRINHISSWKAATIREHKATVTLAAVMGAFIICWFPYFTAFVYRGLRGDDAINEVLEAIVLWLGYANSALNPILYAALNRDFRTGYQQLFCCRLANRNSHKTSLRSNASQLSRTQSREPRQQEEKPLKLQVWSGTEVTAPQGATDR
D(1A) dopamine receptor, sequence (P21728 whole entry): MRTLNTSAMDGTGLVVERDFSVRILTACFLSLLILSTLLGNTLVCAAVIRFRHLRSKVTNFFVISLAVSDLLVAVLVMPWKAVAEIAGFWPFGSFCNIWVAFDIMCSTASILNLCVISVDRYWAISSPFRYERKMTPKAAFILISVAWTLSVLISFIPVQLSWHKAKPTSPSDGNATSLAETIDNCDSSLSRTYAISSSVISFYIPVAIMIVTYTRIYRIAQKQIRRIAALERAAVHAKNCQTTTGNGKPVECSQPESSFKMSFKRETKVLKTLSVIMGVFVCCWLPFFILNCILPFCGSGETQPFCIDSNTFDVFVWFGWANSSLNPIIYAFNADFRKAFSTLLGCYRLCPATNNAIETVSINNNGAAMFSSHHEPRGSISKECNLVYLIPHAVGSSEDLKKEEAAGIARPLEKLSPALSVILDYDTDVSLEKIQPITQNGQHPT
Cytochrome P450 2D6, sequence (P10635 whole entry): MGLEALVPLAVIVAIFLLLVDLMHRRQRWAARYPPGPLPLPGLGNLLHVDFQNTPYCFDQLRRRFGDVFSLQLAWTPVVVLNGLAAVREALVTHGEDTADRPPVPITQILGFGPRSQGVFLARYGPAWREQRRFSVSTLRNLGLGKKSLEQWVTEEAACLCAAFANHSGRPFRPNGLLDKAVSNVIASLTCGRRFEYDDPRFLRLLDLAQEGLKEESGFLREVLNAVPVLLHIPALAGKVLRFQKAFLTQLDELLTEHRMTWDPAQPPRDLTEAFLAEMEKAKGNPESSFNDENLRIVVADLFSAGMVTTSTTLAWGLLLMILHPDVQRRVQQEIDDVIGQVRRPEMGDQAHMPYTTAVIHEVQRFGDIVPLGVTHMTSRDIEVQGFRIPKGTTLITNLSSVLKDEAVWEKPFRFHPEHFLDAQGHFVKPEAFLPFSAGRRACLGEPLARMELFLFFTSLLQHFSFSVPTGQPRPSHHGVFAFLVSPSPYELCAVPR

Row | SMILES | IC50 [1] | Ki [1] | IC50 [2] | IC50 [3] | IC50 [4] | IC50 [5] | IC50 [6] | Ki [6] | pIC50 [7] | IC50 [8] | IC50 [9] | Ki [5] | pIC50 [10]
1 | COc1ccc(CN(CCN(C)C)c2ccccn2)cc1 [PYRILAMINE] | Not Active | Not Active | Not Active | Not Active | Not Active | Not Active | Not Active | Not Active | 6.52 | Not Active | – | – | –
2 | CCc1ccc(C(=O)C(C)CN2CCCCC2)cc1 (stereo not given) [EPERISONE] | Not Active | Not Active | Not Active | Not Active | Not Active | Not Active | Not Active | Not Active | 5.31 | Not Active | – | – | –
3 | N#C[C@H](O[C@@H]1O[C@H](CO[C@@H]2O[C@H](CO)[C@@H](O)[C@H](O)[C@H]2O)[C@@H](O)[C@H](O)[C@H]1O)c1ccccc1 [AMYGDALIN] | Not Active | Not Active | Not Active | Not Active | Not Active | Not Active | Not Active | Not Active | – | Not Active | Not Active | – | –
4 | CC1(C)S[C@@H]2[C@H](NC(=O)[C@H](N)c3ccc(O)cc3)C(=O)N2[C@H]1C(=O)O [AMOXICILLIN] | Not Active | Not Active | Not Active | Not Active | Not Active | Not Active | Not Active | Not Active | – | Not Active | Not Active | – | –
5 | C=C(C)[C@@H]1[C@H]2OC(=O)[C@@H]1[C@]1(O)C[C@H]3O[C@]34C(=O)O[C@H]2[C@]14C [PICROTOXININ] | Not Active | Not Active | Not Active | Not Active | Not Active | Not Active | Not Active | Not Active | – | Not Active | Not Active | – | –
6 | CC[C@@]1(O)C(=O)OCc2c1cc1n(c2=O)Cc2cc3ccccc3nc2-1 [CAMPTOTHECIN] | Not Active | Not Active | Not Active | Not Active | Not Active | Not Active | Not Active | Not Active | – | Not Active | Not Active | – | –
7 | COc1ccc2c(c1)c(CC(=O)OCC(=O)O)c(C)n2C(=O)c1ccc(Cl)cc1 [ACEMETACIN] | Not Active | Not Active | Not Active | Not Active | Not Active | Not Active | Not Active | Not Active | – | Not Active | Not Active | – | –
8 | O=c1cc(-c2ccccc2)oc2c1ccc1ccccc12 [ALPHA-NAPHTHOFLAVONE] | Not Active | Not Active | Not Active | Not Active | Not Active | Not Active | Not Active | Not Active | – | Not Active | Not Active | – | –
9 | C=C1[C@@H]2CCC3[C@@](CC[C@@H]4[C@H](C(=O)O)C[C@@H](O[C@@H]5O[C@H](CO)[C@@H](OS(=O)(=O)[O-])[C@H](OS(=O)(=O)[O-])[C@H]5OC(=O)CC(C)C)C[C@@]34C)(C2)[C@@H]1O.[K+].[K+] (stereo not given in full) [ATRACTYLOSIDE] | Not Active | Not Active | Not Active | Not Active | Not Active | Not Active | Not Active | Not Active | – | Not Active | Not Active | – | –
10 | Fc1ccc([C@@H]2CCNC[C@H]2COc2ccc3c(c2)OCO3)cc1 [PAROXETINE] | Not Active | Not Active | Not Active | Not Active | Not Active | Not Active | Not Active | Not Active | – | Not Active | Not Active | – | –
11 | OCc1ccccc1 [BENZYL ALCOHOL] | Not Active | Not Active | Not Active | Not Active | Not Active | – | Not Active | Not Active | – | Not Active | Not Active | Not Active | –
12 | O=C1OC2(c3ccc(O)cc3Oc3cc(O)ccc32)c2ccccc21 [FLUORESCEIN] | Not Active | Not Active | Not Active | Not Active | Not Active | Not Active | Not Active | Not Active | – | Not Active | – | – | 6.04
13 | CC(=O)O[C@]1(C(C)=O)CC[C@H]2[C@@H]3C=C(Cl)C4=CC(=O)CC[C@]4(C)[C@H]3CC[C@@]21C [CHLORMADINONE ACETATE] | Not Active | Not Active | Not Active | Not Active | Not Active | Not Active | Not Active | Not Active | – | Not Active | – | – | 5.52
14 | NCC[C@H](O)C(=O)N[C@@H]1C[C@H](N)[C@@H](O[C@H]2O[C@H](CN)[C@@H](O)[C@H](O)[C@H]2O)[C@H](O)[C@H]1O[C@H]1O[C@H](CO)[C@@H](O)[C@H](N)[C@H]1O [AMIKACIN] | Not Active | Not Active | Not Active | Not Active | Not Active | Not Active | Not Active | Not Active | – | Not Active | Not Active | – | –
15 | C=C1C(=O)O[C@@H]2C3O[C@]3(C)CC/C=C(\C)CC[C@@H]12 (stereo not given in full) | Not Active | Not Active | Not Active | Not Active | Not Active | Not Active | Not Active | Not Active | – | Not Active | Not Active | – | –
16 | Brc1ccccc1 [BROMOBENZENE] | Not Active | Not Active | Not Active | Not Active | Not Active | Not Active | Not Active | Not Active | – | Not Active | Not Active | – | –
